How the values were obtained:
Experiment in all cases: relative viability (nuclei count vs DMSO), 5 days (fraction); higher = more cells survive
CUDC-101 + Bortezomib = compound: C#Cc1cccc(Nc2ncnc3cc(OC)c(OCCCCCCC(=O)NO)cc23)c1 [CUDC-101] + CC(C)C[C@H](NC(=O)[C@H](Cc1ccccc1)NC(=O)c1cnccn1)B(O)O [Bortezomib] (partner 0.002 µM)
Outline: (§1)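 Cells from lung cancer lines were seeded into 1536-well plates and, one day later, dosed by pin tool. Treatments were either a single drug or a fixed dose of an anchor drug with five library-drug doses (not always all listed) in √10 steps. After 5 days, nuclei were stained in a one-step fixation (final 0.05% Triton X-100, 1% formaldehyde, 1 ug/ml Hoechst) and counted on 4× images, and relative viability is the treated-to-vehicle nuclei ratio, as the median of duplicate plates.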

[1] = compound: C1=CC=C2C(=C1)N=C(S2)C(C#N)C3=NC(=NC=C3)NCCC4=CN=CC=C4 + C[C@]1(O)C[C@@H](c2nc(-c3ccc4ccc(-c5ccccc5)nc4c3)c3c(N)nccn32)C1 [Linsitinib] (partner 1 µM)
Outline: as §1

Vandetanib + Linsitinib = compound: COc1cc2/c(=N/c3ccc(Br)cc3F)nc[nH]c2cc1OCC1CCN(C)CC1 [Vandetanib] + C[C@]1(O)C[C@@H](c2nc(-c3ccc4ccc(-c5ccccc5)nc4c3)c3c(N)nccn32)C1 [Linsitinib] (partner 1 µM)
Outline: as §1

Vandetanib + OSI-027 = compound: COc1cc2/c(=N/c3ccc(Br)cc3F)nc[nH]c2cc1OCC1CCN(C)CC1 [Vandetanib] + COc1cccc2cc(-c3nc([C@H]4CC[C@H](C(=O)O)CC4)n4ncnc(N)c34)[nH]c12 [OSI-027] (partner 0.5 µM)
Outline: as §1

Row | Cell Line | relative viability (CUDC-101 + Bortezomib; first compound 0.01 µM) | relative viability (CUDC-101 + Bortezomib; first compound 0.03162 µM) | relative viability (CUDC-101 + Bortezomib; first compound 0.1 µM) | relative viability (CUDC-101 + Bortezomib; first compound 0.3162 µM) | relative viability (CUDC-101 + Bortezomib; first compound 1 µM) | relative viability ([1]; first compound 0.005 µM) | relative viability ([1]; first compound 0.01581 µM) | relative viability ([1]; first compound 0.05 µM) | relative viability ([1]; first compound 0.1581 µM) | relative viability ([1]; first compound 0.5 µM) | relative viability (Vandetanib + Linsitinib; first compound 0.02 µM) | relative viability (Vandetanib + Linsitinib; first compound 0.06325 µM) | relative viability (Vandetanib + Linsitinib; first compound 0.2 µM) | relative viability (Vandetanib + Linsitinib; first compound 0.6325 µM) | relative viability (Vandetanib + Linsitinib; first compound 2 µM) | relative viability (Vandetanib + OSI-027; first compound 0.02 µM) | relative viability (Vandetanib + OSI-027; first compound 0.06325 µM) | relative viability (Vandetanib + OSI-027; first compound 0.2 µM) | relative viability (Vandetanib + OSI-027; first compound 0.6325 µM) | relative viability (Vandetanib + OSI-027; first compound 2 µM)
1 | PC-14 | 1.07 | 0.978 | 0.89 | 0.596 | 0.219 | 0.914 | 1.07 | 0.972 | 1.08 | 0.896 | 0.988 | 0.911 | 1.03 | 0.617 | 0.249 | 0.931 | 0.576 | 0.458 | 0.145 | 0.109
2 | NCI-H661 | 1.09 | 0.664 | 0.892 | 0.928 | 0.8 | 0.509 | 0.667 | 0.545 | 0.516 | 0.592 | 0.585 | 0.506 | 0.59 | 0.672 | 0.418 | 0.721 | 0.66 | 0.668 | 0.58 | 0.629
3 | EKVX | 0.956 | 1.08 | 1.04 | 0.994 | 0.729 | 0.83 | 1.17 | 1.06 | 1.02 | 0.829 | 1.04 | 0.948 | 0.962 | 0.793 | 0.493 | 0.741 | 0.693 | 0.723 | 0.67 | 0.563
4 | NCI-H322M | 1.15 | 1.44 | 1.18 | 1.08 | 0.776 | 0.88 | 1.03 | 0.899 | 0.987 | 0.803 | 0.832 | 0.841 | 0.924 | 0.846 | 0.894 | 0.573 | 0.551 | 0.608 | 0.49 | 0.422
5 | NCI-H1355 | 1.31 | 1.17 | 1.24 | 1.18 | 1.03 | 0.764 | 0.849 | 0.847 | 1.05 | 0.714 | 0.732 | 0.732 | 0.551 | 0.812 | 0.755 | 0.446 | 0.362 | 0.386 | 0.5 | 0.387
6 | NCI-H2126 | 1.12 | 1.14 | 1.1 | 1.08 | 1.01 | 0.748 | 0.739 | 0.705 | 0.705 | 0.665 | 0.67 | 0.728 | 0.73 | 0.765 | 0.647 | 0.694 | 0.661 | 0.64 | 0.627 | 0.648
7 | NCI-H520 | 0.761 |  | 0.253 | 0.252 | 0.116 | 0.552 | 0.97 | 0.923 | 1.11 | 0.735 | 0.886 | 1.1 | 0.942 | 0.904 | 0.912 | 0.219 | 0.226 | 0.311 | 0.268 | 0.271
8 | NCI-H1755 | 0.985 | 1.06 | 0.88 | 0.933 | 0.79 | 0.968 | 1.05 | 0.976 | 1.07 | 0.908 | 0.985 | 0.939 | 0.922 | 0.974 | 0.936 | 0.688 | 0.649 | 0.757 | 0.689 | 0.672
9 | NCI-H2228 | 1.11 | 1.2 | 1.18 | 0.97 | 0.279 | 0.792 | 0.762 | 0.629 | 0.734 | 0.634 | 0.589 | 0.54 |  | 0.707 | 0.585 | 0.651 | 0.42 | 0.744 | 0.422 | 0.631
10 | NCI-H2347 | 0.94 | 1.05 | 0.866 | 0.95 | 0.805 | 0.899 | 0.854 | 0.954 | 0.953 | 0.966 | 0.976 | 0.64 | 0.929 | 0.995 | 0.982 | 0.518 |  | 0.386 | 0.492 | 0.361
11 | HCC-15 | 1.03 | 1.08 | 1.02 | 1 | 0.851 | 0.842 | 0.911 | 0.926 | 0.888 | 0.882 | 0.816 | 0.804 | 0.91 | 0.864 | 0.849 | 0.75 | 0.638 | 0.668 | 0.682 | 0.537
12 | NCI-H23 | 0.922 | 0.935 | 1.18 | 1.13 | 0.955 |  | 0.685 | 0.583 | 0.85 | 0.533 | 0.685 | 0.531 | 0.519 | 0.57 | 0.425 | 0.513 | 0.559 | 0.573 | 0.613 | 0.746
13 | LC-2-ad | 1.09 | 1.06 | 1.08 | 1.26 | 0.822 | 0.886 | 0.85 | 0.844 | 0.878 | 0.82 | 0.818 | 0.787 | 0.841 | 0.746 | 0.417 | 0.848 | 0.761 | 0.777 | 0.675 | 0.446
14 | LCLC-97TM1 | 0.629 | 0.308 | 0.527 | 0.546 | 0.28 | 0.218 | 0.186 | 0.175 | 0.191 | 0.225 | 0.197 | 0.171 | 0.171 | 0.171 | 0.136 | 0.669 | 0.324 | 0.514 | 0.394 | 0.481

From the supplement of paper PMC10307832
